This is an account of results in patent US8822413B2, “Bifunctional hormone having alpha-MSH activity and natriuretic peptide activity and uses thereof” (Theratechnologies Inc., priority 2007, dated 2014).

Data set [1] concerns Sprague-Dawley (SD) rats. Briefly: Effect on angiotensin II-induced hypertension in SD rat. The class given is in vivo. The settings on record: Ang II infusion, FIG. 2. From the text:
BNP (Natrecor®) was approved by the FDA for lowering blood pressure in hypertensive crisis. Its natural homolog, ANP, was also shown to rapidly reduce blood pressure and is useful as a therapeutic in hypertensive crisis. Activation of renin-angiotensin system is implicated in several medical indications involving hypertension. Therefore, a rat model in which blood pressure was raised with the continuous infusion of angiotensin II was used, and the potency/efficacy of native ANP (peptide #2 in the figures) and the bifunctional hormone of SEQ ID NO: 33 (peptide #33 in the figures) to reduce blood pressure was tested following intravenous bolus injections of the peptides in SD rats.
Animals. Sprague-Dawley (SD) rats (male, weighing from 300 to 330 g) were obtained from Charles River Inc. Animals were maintained on standard laboratory chow under a 12:12 light:dark cycle.
Surgical preparation. The rats were anesthetized with isoflurane 2.5% for the duration of the experiment. Animals were placed under radiant warmer to keep the temperature at 37.5° C. The carotid artery was catheterized (Polyethylene™ Tubing PE90) for continuous arterial blood pressure recording with a pressure transducer (Statham) connected to a multichannel recorder (TA240 Gould). […] During this period, the stability of blood pressure was assessed. […]

For the next data set, the target named is T1, ANP receptor (Sus scrofa, UniProt F1SFW3).
T1 construct: ANP receptor-expressing LLC-PK1 cells; endogenous in cells; host or cells: LLC-PK1 cells
T1 sequence (F1SFW3 29-1057): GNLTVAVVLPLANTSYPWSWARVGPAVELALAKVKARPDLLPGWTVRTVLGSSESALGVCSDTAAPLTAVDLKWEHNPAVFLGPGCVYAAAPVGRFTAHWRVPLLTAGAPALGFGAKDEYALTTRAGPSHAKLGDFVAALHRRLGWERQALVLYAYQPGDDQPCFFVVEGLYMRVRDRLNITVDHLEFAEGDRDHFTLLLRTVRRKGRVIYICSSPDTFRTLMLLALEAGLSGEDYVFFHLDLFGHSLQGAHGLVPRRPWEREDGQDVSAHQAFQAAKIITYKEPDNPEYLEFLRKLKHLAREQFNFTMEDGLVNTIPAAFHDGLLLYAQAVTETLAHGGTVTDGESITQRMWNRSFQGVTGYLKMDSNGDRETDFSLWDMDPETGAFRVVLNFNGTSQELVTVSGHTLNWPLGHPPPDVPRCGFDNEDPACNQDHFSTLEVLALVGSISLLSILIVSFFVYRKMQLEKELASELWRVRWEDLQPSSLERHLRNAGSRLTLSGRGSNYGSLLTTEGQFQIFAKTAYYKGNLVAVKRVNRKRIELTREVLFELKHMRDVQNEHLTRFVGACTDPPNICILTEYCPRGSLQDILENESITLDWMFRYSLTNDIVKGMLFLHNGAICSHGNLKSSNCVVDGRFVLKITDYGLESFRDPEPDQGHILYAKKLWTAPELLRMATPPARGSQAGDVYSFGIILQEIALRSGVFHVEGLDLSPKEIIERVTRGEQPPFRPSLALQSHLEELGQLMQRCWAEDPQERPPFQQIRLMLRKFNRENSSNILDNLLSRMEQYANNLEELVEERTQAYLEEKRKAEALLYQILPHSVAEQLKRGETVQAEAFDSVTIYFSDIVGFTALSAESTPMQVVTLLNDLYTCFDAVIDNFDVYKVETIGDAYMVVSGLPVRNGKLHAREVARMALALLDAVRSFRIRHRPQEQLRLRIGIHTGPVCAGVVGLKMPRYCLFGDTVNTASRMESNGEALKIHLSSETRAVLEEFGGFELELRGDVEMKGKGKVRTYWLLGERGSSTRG
As to the kind of experiment: cGMP production in ANP receptor-expressing LLC-PK1 cells. The conditions noted are these: 30 min stimulation, 10^-6M through 10^-12M, NR = No response detected. Format: cell-based. The protocol:
The bifunctional hormone was tested on ANP receptor-expressing LLC-PK1 cells and on MCR1 receptor-expressing B16-F1 cells. Both cell types were cultured 24 hours before the stimulation, in 96-well plates, at a concentration of 1.0×10^5 cells/ml. Before stimulation, cells were starved 2 hours in DPBS only and incubated 10 min in assay buffer (DPBS containing 20 mM HEPES, 0.1% BSA and 500 μM IBMX). The dose response curve of the bifunctional hormone was done for 30 minutes with concentrations of 10^−6M through 10^−12M. Supernatant was collected and cAMP (B16-F1) or cGMP (LLC-PK1) was measured with a radiolabeled kit from GE Healthcare Company.

The subject of data set [2] is Sprague-Dawley (SD) rats. As to the kind of experiment: Effect on mean arterial pressure (MAP) of anesthetized rat, iv bolus and iv infusion. The class given is in vivo.

Bridge positions count the residues as written; N and C are the ends. Square brackets hold non-standard residues; d marks the D form. Peptide text beside a SMILES is read from it.

Turning to `CC[C@H](C)[C@@H]1NC(=O)[C@H](CCCNC(=N)N)NC(=O)[C@H](CC(=O)O)NC(=O)[C@H](CCSC)NC(=O)[C@H](CCCNC(=N)N)NC(=O)CNC(=O)CNC(=O)[C@H](Cc2ccccc2)NC(=O)[C@@H](NC(=O)[C@H](CCSC)NC(=O)[C@@H]2CCCN2C(=O)[C@H](CCCCN)NC(=O)CNC(=O)[C@H](Cc2c[nH]c3ccccc23)NC(=O)[C@H](CCCNC(=N)N)NC(=O)[C@@H](Cc2ccccc2)NC(=O)[C@H](Cc2c[nH]cn2)NC(C)=O)CSSC[C@@H](C(=O)N[C@@H](CC(N)=O)C(=O)N[C@@H](CO)C(=O)N[C@@H](Cc2ccccc2)C(=O)N[C@@H](CCCNC(=N)N)C(=O)N[C@@H](Cc2ccc(O)cc2)C(N)=O)NC(=O)CNC(=O)[C@H](CC(C)C)NC(=O)CNC(=O)[C@H](CO)NC(=O)[C@H](CCC(N)=O)NC(=O)[C@H](C)NC(=O)CNC1=O` [SEQ ID NO: 33, Ac-H-f-R-W-G-K-P-M-[C-F-G-G-R-M-D-R-I-G-A-Q-S-G-L-G-C]-N-S-F-R-Y-NH2] (Ac-H[dF]RWGKPMCFGGRMDRIGAQSGLGCNSFRY-NH2; disulfide 9-25), the “effect on blood pressure raised by angiotensin II” value with Sprague-Dawley (SD) rats [1] (iv bolus doses of 400 μg/kg and above) was “effect similar to that of ANP”; in the data set with Sprague-Dawley (SD) rats [1] (iv bolus doses of up to 300 μg/kg) it was “did not induced hypotension”. In addition, the response on ANP receptor was half-maximal at 69 nM (EC50). Also, the “effect on MAP of continuous intravenous infusion” value with Sprague-Dawley (SD) rats [2] (30 μg/kg/h iv infusion, MAP recorded over an hour, FIG. 1B) was “well tolerated”. For the same molecule, in the data set with Sprague-Dawley (SD) rats [2] (anesthetized SD rat, incremental iv bolus doses, FIG. 1A), the “bolus iv dose tolerated (MAP)” value was “up to 20 μg/kg”.
